Measurements: paper PMC6979384, “Characterization of the plant homeodomain (PHD) reader family for their histone tail interactions” (Epigenetics & Chromatin, 2020)

Key:
Experiment in all cases: Histone peptide microarray
Format in all cases: binding, human
KDM5B (3) = conditions: each array performed twice, total n = 4; for Array Heatmap signal (histone peptide microarray): GST-tagged KDM5B (3), sheet Array Heatmap
Procedure, shortened: (§1)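 Purified PHD finger domains fused to GST are screened against 293 synthetic histone peptides bearing one or several post-translational modifications. The protein is used at 0.5 μM, and the signal from four replicate arrays is averaged, with standard deviation given.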

PHF21A = conditions: each array performed twice, total n = 4; for Array Heatmap signal (histone peptide microarray): GST-tagged PHF21A, sheet Array Heatmap
Procedure, shortened: as §1

RAG2 = conditions: each array performed twice, total n = 4; for Array Heatmap signal (histone peptide microarray): GST-tagged RAG2, sheet Array Heatmap
Procedure, shortened: as §1

KDM5A (1) = conditions: each array performed twice, total n = 4; for Array Heatmap signal (histone peptide microarray): GST-tagged KDM5A (1), sheet Array Heatmap
Procedure, shortened: as §1

CHD4 (PPCC) = conditions: each array performed twice, total n = 4; for Array Heatmap signal (histone peptide microarray): GST-tagged CHD4 (PPCC = Dual PHD + Dual Chromodomain), sheet Array Heatmap
Procedure, shortened: as §1

ING4 = conditions: each array performed twice, total n = 4; for Array Heatmap signal (histone peptide microarray): GST-tagged ING4, sheet Array Heatmap
Procedure, shortened: as §1

PHF13 = conditions: each array performed twice, total n = 4; for Array Heatmap signal (histone peptide microarray): GST-tagged PHF13, sheet Array Heatmap
Procedure, shortened: as §1

AIRE (PP) = conditions: each array performed twice, total n = 4; for Array Heatmap signal (histone peptide microarray): GST-tagged AIRE (PP), sheet Array Heatmap
Procedure, shortened: as §1

BAZ2B = conditions: each array performed twice, total n = 4; for Array Heatmap signal (histone peptide microarray): GST-tagged BAZ2B, sheet Array Heatmap
Procedure, shortened: as §1

MLL5 = conditions: each array performed twice, total n = 4; for Array Heatmap signal (histone peptide microarray): GST-tagged MLL5, sheet Array Heatmap
Procedure, shortened: as §1

CHD5 (PCC) = conditions: each array performed twice, total n = 4; for Array Heatmap signal (histone peptide microarray): GST-tagged CHD5 (PCC = PHD + Dual Chromodomain), sheet Array Heatmap
Procedure, shortened: as §1

DIDO1 = conditions: each array performed twice, total n = 4; for Array Heatmap signal (histone peptide microarray): GST-tagged DIDO1, sheet Array Heatmap
Procedure, shortened: as §1

BPTF (PB) = conditions: each array performed twice, total n = 4; for Array Heatmap signal (histone peptide microarray): GST-tagged BPTF (PB = PHD + Bromodomain), sheet Array Heatmap
Procedure, shortened: as §1

KDM5B (1) = conditions: each array performed twice, total n = 4; for Array Heatmap signal (histone peptide microarray): GST-tagged KDM5B (1), sheet Array Heatmap
Procedure, shortened: as §1

TAF3 = conditions: each array performed twice, total n = 4; for Array Heatmap signal (histone peptide microarray): GST-tagged TAF3, sheet Array Heatmap
Procedure, shortened: as §1

ING3 = conditions: each array performed twice, total n = 4; for Array Heatmap signal (histone peptide microarray): GST-tagged ING3, sheet Array Heatmap
Procedure, shortened: as §1

PHF8 = conditions: each array performed twice, total n = 4; for Array Heatmap signal (histone peptide microarray): GST-tagged PHF8, sheet Array Heatmap
Procedure, shortened: as §1

KDM5A (3) = conditions: each array performed twice, total n = 4; for Array Heatmap signal (histone peptide microarray): GST-tagged KDM5A (3), sheet Array Heatmap
Procedure, shortened: as §1

MORC3 (CW) = conditions: each array performed twice, total n = 4; for Array Heatmap signal (histone peptide microarray): GST-tagged MORC3 (CW = CW-type Zn-finger), sheet Array Heatmap
Procedure, shortened: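 GST-tagged PHD finger readers were expressed, purified and applied at 0.5 μM to a microarray of 293 synthetic histone peptides carrying single or combinatorial PTMs, using an optimized protocol. Binding signals are averages with standard deviation from 4 replicates.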

PHRF1 (RP) = conditions: each array performed twice, total n = 4; for Array Heatmap signal (histone peptide microarray): GST-tagged PHRF1 (RP), sheet Array Heatmap
Procedure, shortened: as §1

PHF2 = conditions: each array performed twice, total n = 4; for Array Heatmap signal (histone peptide microarray): GST-tagged PHF2, sheet Array Heatmap
Procedure, shortened: as §1

KDM4C (TTP) = conditions: each array performed twice, total n = 4; for Array Heatmap signal (histone peptide microarray): GST-tagged KDM4C (TTP = Tandem Tudor domain + PHD), sheet Array Heatmap
Procedure, shortened: as §1

CHD5 (PPCC) = conditions: each array performed twice, total n = 4; for Array Heatmap signal (histone peptide microarray): GST-tagged CHD5 (PPCC = Dual PHD + Dual Chromodomain), sheet Array Heatmap
Procedure, shortened: as §1

TRIM66 (PB) = conditions: each array performed twice, total n = 4; for Array Heatmap signal (histone peptide microarray): GST-tagged TRIM66 (PB = PHD + Bromodomain), sheet Array Heatmap
Procedure, shortened: as §1

KDM7A = conditions: each array performed twice, total n = 4; for Array Heatmap signal (histone peptide microarray): GST-tagged KDM7A, sheet Array Heatmap
Procedure, shortened: as §1

ING2 = conditions: each array performed twice, total n = 4; for Array Heatmap signal (histone peptide microarray): GST-tagged ING2, sheet Array Heatmap
Procedure, shortened: as §1

DPF2 (PPC2W2) = conditions: each array performed twice, total n = 4; for Array Heatmap signal (histone peptide microarray): GST-tagged DPF2 (PPC2W2 = Dual PHD + C2W2-type Zn-finger), sheet Array Heatmap
Procedure, shortened: as §1

ING1 = conditions: each array performed twice, total n = 4; for Array Heatmap signal (histone peptide microarray): GST-tagged ING1, sheet Array Heatmap
Procedure, shortened: as §1

SP140L = conditions: each array performed twice, total n = 4; for Array Heatmap signal (histone peptide microarray): GST-tagged SP140L, sheet Array Heatmap
Procedure, shortened: as §1

PHF23 = conditions: each array performed twice, total n = 4; for Array Heatmap signal (histone peptide microarray): GST-tagged PHF23, sheet Array Heatmap
Procedure, shortened: as §1

ING5 = conditions: each array performed twice, total n = 4; for Array Heatmap signal (histone peptide microarray): GST-tagged ING5, sheet Array Heatmap
Procedure, shortened: as §1

H3K4ac + K18ac: H3 1-20 was tested, and the “Array Heatmap signal (histone peptide microarray)” value (from here on “Array Heatmap signal”) (KDM5B (3)) was 0.551, the “Array Heatmap signal” value (PHF21A) was 0.4736 and the “Array Heatmap signal” value (RAG2) was 0.291. The “Array Heatmap signal” value (KDM5A (1)) was 0.4894, the “Array Heatmap signal” value (CHD4 (PPCC)) was 0.5623 and the “Array Heatmap signal” value (ING4) was 0.455. For the same substance, the “Array Heatmap signal” value (PHF13) was 0.6219, the “Array Heatmap signal” value (AIRE (PP)) was 0.4624 and the “Array Heatmap signal” value (BAZ2B) was 0.4765. For the same substance, the “Array Heatmap signal” value (MLL5) was 0.5346, the “Array Heatmap signal” value (CHD5 (PCC)) was 0.8291 and the “Array Heatmap signal” value (DIDO1) was 0.6662. For the same substance, the “Array Heatmap signal” value (BPTF (PB)) was 0.3724, the “Array Heatmap signal” value (KDM5B (1)) was 0.6733 and the “Array Heatmap signal” value (TAF3) was 0.2831. The “Array Heatmap signal” value (ING3) was 0.5109, the “Array Heatmap signal” value (PHF8) was 0.356 and the “Array Heatmap signal” value (KDM5A (3)) was 0.4876. For the same substance, the “Array Heatmap signal” value (MORC3 (CW)) was 0.4359, the “Array Heatmap signal” value (PHRF1 (RP)) was 0.5224 and the “Array Heatmap signal” value (PHF2) was 0.5195. For the same substance, the “Array Heatmap signal” value (KDM4C (TTP)) was 0.5036, the “Array Heatmap signal” value (CHD5 (PPCC)) was 0.5589 and the “Array Heatmap signal” value (TRIM66 (PB)) was 0.6289. For the same substance, the “Array Heatmap signal” value (KDM7A) was 0.4179, the “Array Heatmap signal” value (ING2) was 0.6077 and the “Array Heatmap signal” value (DPF2 (PPC2W2)) was 0.6503. For the same substance, the “Array Heatmap signal” value (ING1) was 0.5001, the “Array Heatmap signal” value (SP140L) was 0.3275 and the “Array Heatmap signal” value (PHF23) was 0.5594. For the same substance, the “Array Heatmap signal” value (ING5) was 0.347.

With H3K4ac: H3 1-20 [Peptide H3K4ac] the “Array Heatmap signal” value (KDM5B (3)) was 0.4727, the “Array Heatmap signal” value (PHF21A) was 0.424 and the “Array Heatmap signal” value (RAG2) was 0.2316. For the same substance, the “Array Heatmap signal” value (KDM5A (1)) was 0.429, the “Array Heatmap signal” value (CHD4 (PPCC)) was 0.511 and the “Array Heatmap signal” value (ING4) was 0.4245. For the same substance, the “Array Heatmap signal” value (PHF13) was 0.5951, the “Array Heatmap signal” value (AIRE (PP)) was 0.3833 and the “Array Heatmap signal” value (BAZ2B) was 0.4282. The “Array Heatmap signal” value (MLL5) was 0.5593, the “Array Heatmap signal” value (CHD5 (PCC)) was 0.7194 and the “Array Heatmap signal” value (DIDO1) was 0.6919. The “Array Heatmap signal” value (BPTF (PB)) was 0.3314, the “Array Heatmap signal” value (KDM5B (1)) was 0.5705 and the “Array Heatmap signal” value (TAF3) was 0.248. The “Array Heatmap signal” value (ING3) was 0.4516, the “Array Heatmap signal” value (PHF8) was 0.3449 and the “Array Heatmap signal” value (KDM5A (3)) was 0.4174. For the same substance, the “Array Heatmap signal” value (MORC3 (CW)) was 0.3459, the “Array Heatmap signal” value (PHRF1 (RP)) was 0.4419 and the “Array Heatmap signal” value (PHF2) was 0.603. The “Array Heatmap signal” value (KDM4C (TTP)) was 0.4265, the “Array Heatmap signal” value (CHD5 (PPCC)) was 0.5057 and the “Array Heatmap signal” value (TRIM66 (PB)) was 0.5857. The “Array Heatmap signal” value (KDM7A) was 0.3036, the “Array Heatmap signal” value (ING2) was 0.6074 and the “Array Heatmap signal” value (DPF2 (PPC2W2)) was 0.663. The “Array Heatmap signal” value (ING1) was 0.5138, the “Array Heatmap signal” value (SP140L) was 0.3065 and the “Array Heatmap signal” value (PHF23) was 0.5477. The “Array Heatmap signal” value (ING5) was 0.3289.

For H3K4me1 (1-21): H3 1-21, the “Array Heatmap value (peptide array signal)” value (“Array Heatmap value” for short) (KDM5B (3); KDM5B (3), sheet "Array Heatmap") was 0.4879, the “Array Heatmap value” value (PHF21A; PHF21A, sheet "Array Heatmap") was 0.4499 and the “Array Heatmap value” value (RAG2; RAG2, sheet "Array Heatmap") was 0.2554. The “Array Heatmap value” value (KDM5A (1); KDM5A (1), sheet "Array Heatmap") was 0.4646, the “Array Heatmap value” value (CHD4 (PPCC); CHD4 (PPCC), sheet "Array Heatmap") was 0.5532 and the “Array Heatmap value” value (ING4; ING4, sheet "Array Heatmap") was 0.4485. The “Array Heatmap value” value (PHF13; PHF13, sheet "Array Heatmap") was 0.6202, the “Array Heatmap value” value (AIRE (PP); AIRE (PP), sheet "Array Heatmap") was 0.4291 and the “Array Heatmap value” value (BAZ2B; BAZ2B, sheet "Array Heatmap") was 0.4634. For the same substance, the “Array Heatmap value” value (MLL5; MLL5, sheet "Array Heatmap") was 0.5781, the “Array Heatmap value” value (CHD5 (PCC); CHD5 (PCC), sheet "Array Heatmap") was 0.76 and the “Array Heatmap value” value (DIDO1; DIDO1, sheet "Array Heatmap") was 0.6834. The “Array Heatmap value” value (BPTF (PB); BPTF (PB), sheet "Array Heatmap") was 0.3509, the “Array Heatmap value” value (KDM5B (1); KDM5B (1), sheet "Array Heatmap") was 0.658 and the “Array Heatmap value” value (TAF3; TAF3, sheet "Array Heatmap") was 0.2643. The “Array Heatmap value” value (ING3; ING3, sheet "Array Heatmap") was 0.4698, the “Array Heatmap value” value (PHF8; PHF8, sheet "Array Heatmap") was 0.3966 and the “Array Heatmap value” value (KDM5A (3); KDM5A (3), sheet "Array Heatmap") was 0.5345. The “Array Heatmap value” value (MORC3 (CW); MORC3 (CW), sheet "Array Heatmap") was 0.4815, the “Array Heatmap value” value (PHRF1 (RP); PHRF1 (RP), sheet "Array Heatmap") was 0.5109 and the “Array Heatmap value” value (PHF2; PHF2, sheet "Array Heatmap") was 0.5317. The “Array Heatmap value” value (KDM4C (TTP); KDM4C (TTP), sheet "Array Heatmap") was 0.468, the “Array Heatmap value” value (CHD5 (PPCC); CHD5 (PPCC), sheet "Array Heatmap") was 0.5364 and the “Array Heatmap value” value (TRIM66 (PB); TRIM66 (PB), sheet "Array Heatmap") was 0.5876. For the same substance, the “Array Heatmap value” value (KDM7A; KDM7A, sheet "Array Heatmap") was 0.3293, the “Array Heatmap value” value (ING2; ING2, sheet "Array Heatmap") was 0.622 and the “Array Heatmap value” value (DPF2 (PPC2W2); DPF2 (PPC2W2), sheet "Array Heatmap") was 0.6848. For the same substance, the “Array Heatmap value” value (ING1; ING1, sheet "Array Heatmap") was 0.559, the “Array Heatmap value” value (SP140L; SP140L, sheet "Array Heatmap") was 0.3636 and the “Array Heatmap value” value (PHF23; PHF23, sheet "Array Heatmap") was 0.5596. For the same substance, the “Array Heatmap value” value (ING5; ING5, sheet "Array Heatmap") was 0.355.
